Our source for the IC50 values is US20250270198A1, “PYRIDONE COMPOUNDS AS TRPA1 INHIBITORS” (D. E. Shaw Research, LLC, priority 2022, published 2025).

The target of one experiment is hERG channel (Homo sapiens (Human), UniProt Q12809). Briefly: hERG activity, automated patch clamp (SyncroPatch). The experiment is classed as cell-based. The note with it: CHO-K1 cells stably expressing hERG, tail current at −50 mV, compounds at 50 μM and 100 μM. As for the experimental part:
This assay was used to evaluate the disclosed compounds' inhibition activities against the hERG channel.
CHO-K1 cells stably expressing hERG were grown in Ham's F-12 Medium with Glutamine containing 10% heat-inactivated FBS, 1% Penicillin/Streptomycin, Hygromycin (100 μg/ml), and G418 (100 μg/ml). Cells used for electrophysiology were plated in plastic culture flasks and grown at 37° C. in a 5% CO2-humidified incubator per ChanPharm SOP. Stocks were maintained in cryogenic storage.
The cells were bathed in an extracellular solution containing 140 mM NaCl, 4 mM KCl, 2 mM CaCl2), 1 mM MgCl2, 5 mM Glucose, and 10 mM HEPES; pH adjusted to 7.4 with NaOH; 295-305 mOsm. The internal solution contained 10 mM KCl, 110 mM KF, 10 mM NaCl, 10 mM EGTA, 10 mM HEPES; pH adjusted to 7.2 with KOH; 280-285 mOsm. All compounds were dissolved in DMSO at 30 mM. Compound stock solutions were freshly diluted with external solution to concentrations of 50 μM and 100 μM. The highest content of DMSO […].
All experiments were performed at room temperature. Each cell acted as its own control. In preparation for a recording session, intracellular solution (see above) was loaded into the intracellular compartments of the automated patch clamp platform SyncroPatch (Nanion) chip and the cell suspension was pipetted into the extracellular compartments. After establishment of a whole-cell configuration, membrane current recordings, and compound application were enabled by means of the SyncroPatch. hERG currents were elicited by a voltage pulse pattern with fixed amplitudes (depolarization: +20 mV amplitude, 300 ms duration; repolarization: −50 mV, 300 ms duration) repeated at 3 s intervals from a holding potential of −80 mV.
Data acquisition and analysis were performed using DataControl384 (Nanion's proprietary software). To determine the (percentage) inhibition, the last single pulse in the pulse train (i.e., the repolarization step to −50 mV; tail current) at a given compound concentration was used. AUC and peak values, obtained in the presence of compound, were normalized to control values in the absence of compound.
For orientation: hERG is a cardiac potassium channel; its block is linked to QT prolongation.

A further experiment addresses human TRPA1 channel (Homo sapiens (Human), UniProt O75762). Briefly: TRPA1 inhibitor activity, automated patch clamp (SyncroPatch). It is filed as cell-based. The note with it: CHO cells inducibly expressing human TRPA1, currents elicited by carvacrol (300 μM), holding potential −60 mV. As for the experimental part:
This assay was used to evaluate the disclosed compounds' inhibition activities against the human TRPA1 channel.
CHO cells inducibly expressing human TRPA1 were grown in DMEM containing 10% heat-inactivated FBS, 1 mM Sodium Pyruvate, 2 mM L-Glutamine, Zeocin (100 μg/ml) and Blasticidin (10 μg/ml). Expression was induced by addition of Doxycycline (1 μg/ml) 24 hours before experiments. Cells used for electrophysiology were plated in plastic culture flasks and grown at 37° C. in a 5% CO2-humidified tissue culture incubator per ChanPharm SOP. Stocks were maintained in cryogenic storage.
The cells were bathed in an extracellular solution containing 80 mM NaCl, 60 mM NMDG, 4 mM KCl, 2 mM CaCl2), 6 mM MgCl2, 5 mM Glucose. 10 mM HEPES, 3 mM HEDTA; pH adjusted to 7.4 with NaOH; 305-310 mOsm. All compounds were dissolved in DMSO at 30 mM. The internal solution contained 10 mM CsCl, 110 mM CsF, 10 mM NaCl, 10 mM EGTA, 10 mM HEPES, 4 mM MgATP, 0.25 mM NaGTP, 4 mM BAPTA; pH adjusted to 7.2 with CsOH; 285-290 mOsm. Compound stock solutions were freshly diluted with external solution to concentrations of 3 nM, 10 nM 30 nM, 100 nM, 300 nM, 1 μM, 3 μM, 10 μM, and 30 μM. The highest content of DMSO (0.1%) was present at 30 μM.
All experiments were performed at room temperature. Each cell acted as its own control. In preparation for a current recording session, intracellular solution (see above) was loaded into the intracellular compartments of the automated patch clamp platform SyncroPatch (Nanion) chip and the cell suspension was pipetted into the extracellular compartments. After establishment of a whole-cell configuration, membrane current recordings and compound application were enabled by means of the SyncroPatch. TRPA1 currents were elicited by application of carvacrol (300 μM) at a constant holding potential of −60 mV (see Table A below).
To determine IC50 values, AUC and peak values, obtained in the presence of a given compound concentration, were normalized to control values in absence of compound. Using DataControl384 (Nanion's proprietary software), IC50 values were derived by fitting the normalized data to the Hill equation.
(In patch-clamp work, channel activity is measured electrically.)

SMILES strings stand for the structures. pIC50: −log10 of the molar value.

hERG channel, sequence (Q12809 whole entry): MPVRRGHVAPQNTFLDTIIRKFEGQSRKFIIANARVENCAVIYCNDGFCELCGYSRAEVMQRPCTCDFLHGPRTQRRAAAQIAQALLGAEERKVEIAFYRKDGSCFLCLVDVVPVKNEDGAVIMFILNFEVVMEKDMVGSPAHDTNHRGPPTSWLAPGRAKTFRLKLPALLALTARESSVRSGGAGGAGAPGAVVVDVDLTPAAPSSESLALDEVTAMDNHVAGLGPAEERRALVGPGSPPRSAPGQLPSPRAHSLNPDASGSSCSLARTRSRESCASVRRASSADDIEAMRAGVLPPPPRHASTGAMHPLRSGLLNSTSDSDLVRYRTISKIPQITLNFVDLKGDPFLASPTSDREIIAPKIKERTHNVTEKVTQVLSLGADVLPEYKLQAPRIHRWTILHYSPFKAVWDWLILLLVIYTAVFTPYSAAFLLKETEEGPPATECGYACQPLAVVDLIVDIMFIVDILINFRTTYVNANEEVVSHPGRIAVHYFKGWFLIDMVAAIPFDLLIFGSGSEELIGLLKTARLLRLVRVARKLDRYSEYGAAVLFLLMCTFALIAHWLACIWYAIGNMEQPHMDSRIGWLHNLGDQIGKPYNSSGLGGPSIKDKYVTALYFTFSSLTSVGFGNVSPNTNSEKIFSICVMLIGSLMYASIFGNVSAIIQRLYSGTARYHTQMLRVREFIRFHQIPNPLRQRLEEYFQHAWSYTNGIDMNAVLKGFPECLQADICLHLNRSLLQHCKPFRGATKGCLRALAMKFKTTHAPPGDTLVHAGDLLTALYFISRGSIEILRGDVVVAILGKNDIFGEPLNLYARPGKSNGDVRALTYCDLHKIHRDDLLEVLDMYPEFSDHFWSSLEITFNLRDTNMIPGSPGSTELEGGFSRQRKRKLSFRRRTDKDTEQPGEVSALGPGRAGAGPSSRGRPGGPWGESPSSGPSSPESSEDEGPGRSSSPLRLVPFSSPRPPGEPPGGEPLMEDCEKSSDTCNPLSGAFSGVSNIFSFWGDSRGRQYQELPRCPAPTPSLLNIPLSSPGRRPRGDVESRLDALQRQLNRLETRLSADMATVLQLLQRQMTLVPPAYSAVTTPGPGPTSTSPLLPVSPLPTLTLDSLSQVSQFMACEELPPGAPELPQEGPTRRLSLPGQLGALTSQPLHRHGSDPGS
human TRPA1 channel, sequence (O75762 whole entry): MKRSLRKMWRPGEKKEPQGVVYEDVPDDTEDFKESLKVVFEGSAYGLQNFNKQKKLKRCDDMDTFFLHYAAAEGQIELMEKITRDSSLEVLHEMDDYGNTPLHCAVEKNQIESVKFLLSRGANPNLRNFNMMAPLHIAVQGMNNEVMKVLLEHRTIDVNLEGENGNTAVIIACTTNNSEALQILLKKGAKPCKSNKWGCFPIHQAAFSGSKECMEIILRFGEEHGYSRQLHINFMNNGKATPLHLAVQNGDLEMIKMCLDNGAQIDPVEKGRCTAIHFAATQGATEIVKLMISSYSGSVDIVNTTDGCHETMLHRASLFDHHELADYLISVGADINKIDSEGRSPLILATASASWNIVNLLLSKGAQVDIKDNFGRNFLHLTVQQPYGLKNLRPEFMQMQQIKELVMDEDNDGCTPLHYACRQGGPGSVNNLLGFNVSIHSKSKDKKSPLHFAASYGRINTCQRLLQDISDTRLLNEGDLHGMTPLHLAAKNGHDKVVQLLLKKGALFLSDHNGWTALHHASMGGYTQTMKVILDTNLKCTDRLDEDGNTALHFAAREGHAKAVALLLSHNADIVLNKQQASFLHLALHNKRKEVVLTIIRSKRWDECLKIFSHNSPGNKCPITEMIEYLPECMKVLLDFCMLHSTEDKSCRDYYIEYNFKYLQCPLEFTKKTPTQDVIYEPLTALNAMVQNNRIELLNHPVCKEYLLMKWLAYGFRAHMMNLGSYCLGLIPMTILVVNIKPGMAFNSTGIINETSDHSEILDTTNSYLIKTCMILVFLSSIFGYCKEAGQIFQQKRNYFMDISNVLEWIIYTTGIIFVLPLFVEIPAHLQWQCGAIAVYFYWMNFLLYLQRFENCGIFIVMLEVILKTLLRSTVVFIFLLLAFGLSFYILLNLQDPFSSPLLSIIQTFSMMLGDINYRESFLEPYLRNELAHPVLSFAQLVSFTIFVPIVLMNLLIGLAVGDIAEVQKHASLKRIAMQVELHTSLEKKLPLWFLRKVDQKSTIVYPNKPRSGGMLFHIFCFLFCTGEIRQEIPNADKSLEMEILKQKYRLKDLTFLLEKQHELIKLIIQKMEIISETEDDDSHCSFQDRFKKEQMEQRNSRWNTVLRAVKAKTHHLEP

What is called pIC50 is the negative decadic logarithm of the IC50, by convention in mol/L. Lower therefore signals a high IC50. As for `O=c1c(Cl)nccn1Cc1nc(C[C@H](O)c2ccc(Cl)cc2)no1` [Compound 22, (S)-3-chloro-1-((3-(2-(4-chlorophenyl)-2-hydroxyethyl)-1,2,4-oxadiazol-5-yl)methyl)pyrazin-2(1H)-one], the results for the pIC50 on hERG channel (Table 4) and on human TRPA1 channel (Table 4) were greater than 4.30 and greater than 6.52, respectively.
For `Cn1cc(-c2ccn(Cc3nc(C[C@H](O)c4ccc(Cl)cc4)no3)c(=O)c2Cl)cn1` [Compound 18, (S)-3-chloro-1-((3-(2-(4-chlorophenyl)-2-hydroxyethyl)-1,2,4-oxadiazol-5-yl)methyl)-4-(1-methyl-1H-pyrazol-4-yl)pyridin-2(1H)-one] the same measures were greater than 4.30 and greater than 6.00.
`O=c1c(Cl)c(-c2cn[nH]c2)ncn1Cc1nc(C[C@H](O)c2ccc(Cl)cc2)no1` [Compound 35, (S)-5-chloro-3-((3-(2-(4-chlorophenyl)-2-hydroxyethyl)-1,2,4-oxadiazol-5-yl)methyl)-6-(1H-pyrazol-4-yl)pyrimidin-4(3H)-one]: the pIC50 on hERG channel (Table 4) is greater than 4.30; against human TRPA1 channel (Table 4) it was greater than 6.52.
Take `COc1ncn(Cc2nc(C[C@H](O)c3ccc(Cl)cc3)no2)c(=O)c1Cl` [Compound 70, (S)-5-chloro-3-((3-(2-(4-chlorophenyl)-2-hydroxyethyl)-1,2,4-oxadiazol-5-yl)methyl)-6-methoxypyrimidin-4(3H)-one]: the values for the pIC50 on hERG channel (Table 5) and on human TRPA1 channel (Table 5) were less than 4.30 and greater than 6.52, respectively.
The corresponding values for `O=c1c(Cl)cnc(CO)n1Cc1nc(C[C@H](O)c2ccc(Cl)cc2)no1` [Compound 73, (S)-5-chloro-3-((3-(2-(4-chlorophenyl)-2-hydroxyethyl)-1,2,4-oxadiazol-5-yl)methyl)-2-(hydroxymethyl)pyrimidin-4(3H)-one] are less than 4.30 and greater than 7.00.
For `O=c1c(Cl)c(CO)ccn1Cc1nc(C[C@H](O)c2ccc(Cl)cc2)no1` [Compound 17, (S)-3-chloro-1-((3-(2-(4-chlorophenyl)-2-hydroxyethyl)-1,2,4-oxadiazol-5-yl)methyl)-4-(hydroxymethyl)pyridin-2(1H)-one], the negative logarithm of the IC50 (pIC50) at hERG channel (Table 4) was less than 4.30; at human TRPA1 channel (Table 4), greater than 6.00.
Turning to `Cc1c(Cl)ncn(Cc2nc(C[C@H](O)c3ccc(Cl)cc3)no2)c1=O` [Compound 58, (S)-6-chloro-3-((3-(2-(4-chlorophenyl)-2-hydroxyethyl)-1,2,4-oxadiazol-5-yl)methyl)-5-methylpyrimidin-4(3H)-one], the pIC50 against hERG channel (Table 5) is less than 4.30; against human TRPA1 channel (Table 5) it was greater than 7.00.
`NC(=O)c1cn(Cc2nc(C[C@H](O)c3ccc(Cl)cc3)no2)c(=O)c(Cl)n1` [Compound 26, (S)-6-chloro-4-((3-(2-(4-chlorophenyl)-2-hydroxyethyl)-1,2,4-oxadiazol-5-yl)methyl)-5-oxo-4,5-dihydropyrazine-2-carboxamide]: the pIC50 against hERG channel (Table 4) was less than 4.30; against human TRPA1 channel (Table 4), greater than 6.00.
In the case of `O=c1c(Cl)c(CO)ncn1Cc1nc(C[C@H](O)c2ccc(Cl)cc2)no1` [Compound 54, (S)-5-chloro-3-((3-(2-(4-chlorophenyl)-2-hydroxyethyl)-1,2,4-oxadiazol-5-yl)methyl)-6-(hydroxymethyl)pyrimidin-4(3H)-one], the pIC50 against hERG channel (Table 5) was less than 4.30; on human TRPA1 channel (Table 5), greater than 6.52.
On to `Cc1cc(C(N)=O)cn(Cc2nc(CCc3ccc(Cl)cc3)no2)c1=O` [Compound 4, 1-({3-[2-(4-chlorophenyl)ethyl]-1,2,4-oxadiazol-5-yl}methyl)-5-methyl-6-oxopyridine-3-carboxamide], for which the pIC50 was less than 4.30 against hERG channel (Table 4) and greater than 6.00 at human TRPA1 channel (Table 4).
As to `Cc1ncn(Cc2nc(C[C@H](O)c3ccc(Cl)cc3)no2)c(=O)c1Cl` [Compound 36, (S)-5-chloro-3-((3-(2-(4-chlorophenyl)-2-hydroxyethyl)-1,2,4-oxadiazol-5-yl)methyl)-6-methylpyrimidin-4(3H)-one], the pIC50 against hERG channel (Table 4) is less than 4.30; on human TRPA1 channel (Table 4) it was greater than 7.00.
For `NC(=O)c1cc(Cl)c(=O)n(Cc2nc(CCc3ccc(Cl)cc3)no2)c1` [Compound 6, 5-chloro-1-((3-(4-chlorophenethyl)-1,2,4-oxadiazol-5-yl)methyl)-6-oxo-1,6-dihydropyridine-3-carboxamide] the same measures were greater than 4.30 and greater than 6.52.
The corresponding values for `Cc1c(CN)ncn(Cc2nc(CCc3ccc(Cl)cc3)no2)c1=O` [Compound 30, 6-(aminomethyl)-3-((3-(4-chlorophenethyl)-1,2,4-oxadiazol-5-yl)methyl)-5-methylpyrimidin-4(3H)-one] are greater than 4.30 and greater than 6.52.
On to `Cc1c(-c2cn[nH]c2)ncn(Cc2nc(C[C@H](O)c3ccc(Cl)cc3)no2)c1=O` [Compound 65, (S)-3-((3-(2-(4-chlorophenyl)-2-hydroxyethyl)-1,2,4-oxadiazol-5-yl)methyl)-5-methyl-6-(1H-pyrazol-4-yl)pyrimidin-4(3H)-one], for which the pIC50 on hERG channel (Table 5) was greater than 4.30; against human TRPA1 channel (Table 5), greater than 6.52.
Consider `Cc1nc(C(N)=O)cn(Cc2nc(C[C@H](O)c3ccc(Cl)cc3)no2)c1=O` [Compound 29, 4-({3-[(2S)-2-(4-chlorophenyl)-2-hydroxyethyl]-1,2,4-oxadiazol-5-yl}methyl)-6-methyl-5-oxopyrazine-2-carboxamide], for which the results for the pIC50 against hERG channel (Table 4) and on human TRPA1 channel (Table 4) were less than 4.30 and greater than 6.52, respectively.
For `N#Cc1ncn(Cc2nc(C[C@H](O)c3ccc(Cl)cc3)no2)c(=O)c1Cl` [Compound 63, 5-chloro-1-({3-[(2S)-2-(4-chlorophenyl)-2-hydroxyethyl]-1,2,4-oxadiazol-5-yl}methyl)-6-oxopyrimidine-4-carbonitrile], the pIC50 against hERG channel (Table 5) is greater than 4.30; against human TRPA1 channel (Table 5) it was greater than 7.00.
As to `Cc1cc(-c2cn[nH]c2)cn(Cc2nc(CCc3ccc(Cl)cc3)no2)c1=O` [Compound 8, 1-((3-(4-chlorophenethyl)-1,2,4-oxadiazol-5-yl)methyl)-3-methyl-5-(1H-pyrazol-4-yl)pyridin-2(1H)-one], the pIC50 at hERG channel (Table 4) is greater than 4.30; on human TRPA1 channel (Table 4) it was greater than 5.00.
Regarding `Nc1ncc(Cl)c(=O)n1Cc1nc(C[C@H](O)c2ccc(Cl)cc2)no1` [Compound 71, (S)-2-amino-5-chloro-3-((3-(2-(4-chlorophenyl)-2-hydroxyethyl)-1,2,4-oxadiazol-5-yl)methyl)pyrimidin-4(3H)-one], the negative logarithm of the IC50 (pIC50) was less than 4.30 against hERG channel (Table 5) and greater than 7.00 against human TRPA1 channel (Table 5).
With `O=c1c(Br)c(Cl)ncn1Cc1nc(C[C@H](O)c2ccc(Cl)cc2)no1` [Compound 67, (S)-5-bromo-6-chloro-3-((3-(2-(4-chlorophenyl)-2-hydroxyethyl)-1,2,4-oxadiazol-5-yl)methyl)pyrimidin-4(3H)-one], the results for the pIC50 against hERG channel (Table 5) and on human TRPA1 channel (Table 5) were greater than 4.30 and greater than 7.00, respectively.
